Source: patent US11111500B2, “Mutated protoporphyrinogen IX oxidase (PPX) genes” (CIBUS US LLC, priority 2010, dated 2021)
Read-outs that look alike come from different tables or passages of the source.

Experiments:
[1] = system: potato protoplasts (protoplast-derived cells); test: Sulfentrazone kill curve with cell suspension and shoot tip-derived protoplasts; format: cell-based; conditions: for Microcallus formation: exposed one month; for # Of calli in 3 beads, # / # Of calli in 3 beads, %: Non treated protoplast + PEG; for # Of calli in 3 beads, # / # Of calli in 3 beads, % / # of calli in beads, # / # of calli in beads, %: one month; for # Of calli in 3 beads, % / # of calli in beads, %: relative to 0.0 μM; for # of calli in beads, # / # of calli in beads, %: Stop-GFP + Correcting GRON protoplasts
Procedure: Herbicide selection experiments were performed to determine the concentration of herbicide necessary to kill protoplast derived microcalli in a defined treatment period. […] The herbicide was suspended in DMSO, with the final concentration of DMSO in the herbicide treatments being 1%. Development of cells was evaluated under the microscope once a week. […]
Therefore, new kill curves were initiated with lower concentrations of 0, 0.5, 0.6, 0.7 and 0.8 μM of sulfentrazone, shown in Table 1.3.
(§1) About 200 shoot tips of 2-8 week-old in vitro shoots that have been cultured under a regular day/night regime, or, preferably were kept for two days before protoplast isolation in the dark, shoots may be cut into small pieces with a scalpel in a petri dish with sterile water. After all tips have been cut, the water is replaced with protoplast culture medium, preferably BN (B5 Salts and Vitamins (Phytotechnology Laboratories), glucose 20 g/L, mannitol 70 g/L, alpha naphthalene acetic acid 5 mg/L, additional CaCl2×2H2O 600 mg/L, casein hydrolysate 250 mg/L, cystcine-HCL 10 mg/L, polyvinylpyrrolidone (MW 10,000) 5 g/L. After approximately 1-2 h, the protoplast culture medium is replaced with enzyme solution, for example consisting of medium BN, in which 0.5% (w/v) Cellulase YC and 0.75% (w/v) Maccrozyme R10 (both from Karlan Research Products, Cottonwood, Ariz.), 1 g/L bovine serum albumin, and 1 g/L 2-morpholinoethanesulfonic acid are dissolved. The ratio of the number of shoot tips over the volume of enzyme solution can be between 10 and 16, preferably 13. The dish with shoot tip pieces in enzyme solution is incubated for at 25° C.-30° C., preferably 28° C., in darkness on a shaker set to about 50 rpm. After overnight incubation the protoplast suspension is purified using an iodixanol density gradient (adapted from Optiprep Application Sheet C18; Purification of Intact Plant Protoplasts; Axis-Shield USA, 10 Commerce Way, Norton, Mass. 02776). After the density gradient centrifugation, the band with purified protoplasts is removed together with about 5 mL W5 medium (Frigerio et al., 1998). The protoplast density and yield are determined with a hemocytometer. The protoplasts density is adjusted to 1×10^6/mL in BN medium containing 2 mg/L 2,6-dichlorobenzonitrile (cellulose synthase inhibitor), and the protoplasts are cultured in darkness at 30° C. for about 16 h.
(§2) 1. Fast growing cell suspensions are used, preferably three days after their last subculture. 1.5 mL settled cell volume is transferred to about 15 ml BN medium, which after 2 h is replaced with enzyme solution. 2. The protoplast purification is followed immediately by the GRON/PEG treatment.
(§3) The protoplast suspension is mixed with an equal volume of W5 medium, transferred to a 50 mL centrifuge tube, and centrifuged for 10 min at the lowest setting of a clinical centrifuge (about 50×g). The supernatant is removed and replaced with TM medium (Klaus, S. Markerfreie transplastome Tabakpflanzen (Marker-free transplastomic tobacco plants). PhD Dissertation, 2002, Ludwig-Maximilians-Universitát Múnchen, 109 pp), adjusting the protoplast density to 5×10^6/mL. Aliquots of 100 μL containing 5×10^5 protoplasts each are distributed into 12 mL round bottom centrifuge tubes. GRONs (such as those shown in Table 14) targeted at one or more mutations in one or both of the mitochondrial and plastidal PPX genes are then introduced into the protoplasts using a PEG treatment. To introduce the GRONs into the protoplasts, 12.5 μg GRON dissolved in 25 μL purified water and 125 μL of a polyethylene glycol solution (5 g PEG MW 1500, 638 mg mannitol, 207 mg CaNO3×4H2O and 8.75 mL purified water; pH adjusted to about 9.0) is added. After a 10-30 min incubation on ice, the protoplast-PEG suspension is washed with W5 medium and resuspended in medium BN. The suspension is kept overnight in darkness at room temperature.
(§4) One day after the GRON introduction, protoplasts are embedded in calcium alginate. […]

[2] = Solubility of herbicide in liquid culture selection media; format: physicochemical
Procedure: Liquid culture selection conditions were developed for both sulfentrazone and flumioxazin. Cultures of 1 mL volume were tested with sulfentrazone and flumioxazin concentrations ranging from 0 to 10 mM. The 0 mM samples had 25 μL DMSO (2.5%) to mimic the concentration of DMSO in the samples containing 10 mM herbicide. Each tube was inoculated with 10 μL of an overnight culture of HemG cells complemented with the wildtype PPX plasmid to ensure uniformity. Spectrophotometric readings (OD600) were taken for each sample (1:4 dilution) and a sample of each plated on LB-Chlor-IPTG plates to determine whether the OD600 correlated with the number of viable colonies. A 10% dilution of the overnight culture was plated for the sulfentrazone-treated cells and a 1% dilution for the cells treated with flumioxazin was plated (see results in Tables 8a-f and 9a-d).
Both sulfentrazone and flumioxazin precipitate out in the liquid media, causing it to appear opaque even before inoculating bacteria.

[3] = system: potato protoplasts (protoplast derived microcalli); test: Flumioxazin kill curve with cell suspension and shoot tip-derived protoplasts; format: cell-based; conditions: for # Of calli in 3 beads, # / # Of calli in 3 beads, %: Non treated protoplast + PEG; for # Of calli in 3 beads, # / # Of calli in 3 beads, % / # of calli in 3 beads, # / # of calli in 3 beads, %: one month; for # Of calli in 3 beads, % / # of calli in 3 beads, %: % of average control; for # of calli in 3 beads, # / # of calli in 3 beads, %: Stop-GFP + Correcting GRON
Procedure: Herbicide selection experiments were performed to determine the concentration of herbicide necessary to kill protoplast derived microcalli in a defined treatment period. […] The herbicide was suspended in DMSO, with the final concentration of DMSO in the herbicide treatments being 1%. Development of cells was evaluated under the microscope once a week. […] A flumioxazin concentration of 0.032 mM is sufficient to prevent microcallus development from potato protoplasts.
as §1, §2, §3, §4

**Q.** Which Microcallus formation ([1]; 7.8 μM sulfentrazone) does the source give for `Cc1nn(-c2cc(NS(C)(=O)=O)c(Cl)cc2Cl)c(=O)n1C(F)F` [sulfentrazone] here?
**A.** Its Microcallus formation is “No”.

**Q.** What about the Microcallus formation ([1]; 15.6 μM sulfentrazone) of the same compound?
**A.** The Microcallus formation was “No”.

**Q.** What about the Microcallus formation ([1]; 31.25 μM sulfentrazone) of the same compound?
**A.** Its Microcallus formation is “No”.

**Q.** And the Microcallus formation ([1]; 62.5 μM sulfentrazone)?
**A.** The Microcallus formation was “No”.

**Q.** What about the “# Of calli in 3 beads, #” value ([1]; 0.5 μM) of the same compound?
**A.** The value was 45.

**Q.** And the “# Of calli in 3 beads, %” value ([1]; 0.5 μM)?
**A.** Its value is 30%.

**Q.** What about the “# Of calli in 3 beads, #” value ([1]; 0.6 μM) of the same compound?
**A.** The value was 8.

**Q.** What about the “# Of calli in 3 beads, %” value ([1]; 0.6 μM) of the same compound?
**A.** Its value is 6.9%.

**Q.** And the “# Of calli in 3 beads, #” value ([1]; 0.7 μM)?
**A.** The value was 2.

**Q.** What about the “# Of calli in 3 beads, %” value ([1]; 0.7 μM) of the same compound?
**A.** Its value is 1.7%.

**Q.** What about the “# Of calli in 3 beads, #” value ([1]; 0.8 μM) of the same compound?
**A.** Its value is 0.0.

**Q.** What about the “# Of calli in 3 beads, %” value ([1]; 0.8 μM) of the same compound?
**A.** The value was 0.0%.

**Q.** What about the “# of calli in beads, #” value ([1]; 0.5 μM) of the same compound?
**A.** Its value is 38.

**Q.** And the “# of calli in beads, %” value ([1]; 0.5 μM)?
**A.** The value was 30.2%.

**Q.** And the “# of calli in beads, #” value ([1]; 0.6 μM)?
**A.** The value was 12.

**Q.** What about the “# of calli in beads, %” value ([1]; 0.6 μM) of the same compound?
**A.** Its value is 9.6%.

**Q.** What about the “# of calli in beads, #” value ([1]; 0.7 μM) of the same compound?
**A.** Its value is 7.

**Q.** And the “# of calli in beads, %” value ([1]; 0.7 μM)?
**A.** Its value is 5.6%.

**Q.** What about the “# of calli in beads, #” value ([1]; 0.8 μM) of the same compound?
**A.** Its value is 0.0.

**Q.** And the “# of calli in beads, %” value ([1]; 0.8 μM)?
**A.** The value was 0.0%.

**Q.** What about the “concentration sufficient to kill all protoplast-derived cells” value ([1]; shoot tip-derived protoplasts and cell suspension) of the same compound?
**A.** The value was 7.8 µM.

**Q.** And the “solubility in liquid media” value [2]?
**A.** The value was “eventually goes into solution”.

**Q.** With `C#CCN1C(=O)COc2cc(F)c(N3C(=O)C4=C(CCCC4)C3=O)cc21` [flumioxazin] as the compound, how does the “concentration sufficient to prevent microcallus development from potato protoplasts” value [3] read?
**A.** The value was 0.032 mM.

**Q.** And the “# Of calli in 3 beads, #” value ([3]; flumioxazin 0.0156 μM)?
**A.** The value was 40.

**Q.** What about the “# Of calli in 3 beads, %” value ([3]; flumioxazin 0.0156 μM) of the same compound?
**A.** Its value is 25%.

**Q.** And the “# Of calli in 3 beads, #” value ([3]; flumioxazin 0.0312 μM)?
**A.** Its value is 8.

**Q.** What about the “# Of calli in 3 beads, %” value ([3]; flumioxazin 0.0312 μM) of the same compound?
**A.** The value was 5%.

**Q.** What about the “# Of calli in 3 beads, #” value ([3]; flumioxazin 0.0468 μM) of the same compound?
**A.** Its value is 0.0.

**Q.** What about the “# Of calli in 3 beads, %” value ([3]; flumioxazin 0.0468 μM) of the same compound?
**A.** The value was 0.0%.

**Q.** What about the “# Of calli in 3 beads, #” value ([3]; flumioxazin 0.0624 μM) of the same compound?
**A.** Its value is 0.

**Q.** And the “# Of calli in 3 beads, %” value ([3]; flumioxazin 0.0624 μM)?
**A.** The value was 0%.

**Q.** And the “# of calli in 3 beads, #” value ([3]; flumioxazin 0.0156 μM)?
**A.** The value was 83.

**Q.** What about the “# of calli in 3 beads, %” value ([3]; flumioxazin 0.0156 μM) of the same compound?
**A.** The value was 39%.

**Q.** And the “# of calli in 3 beads, #” value ([3]; flumioxazin 0.0312 μM)?
**A.** Its value is 11.

**Q.** And the “# of calli in 3 beads, %” value ([3]; flumioxazin 0.0312 μM)?
**A.** The value was 4%.

**Q.** And the “# of calli in 3 beads, #” value ([3]; flumioxazin 0.0468 μM)?
**A.** The value was 0.0.

**Q.** And the “# of calli in 3 beads, %” value ([3]; flumioxazin 0.0468 μM)?
**A.** The value was 0.0%.

**Q.** What about the “# of calli in 3 beads, #” value ([3]; flumioxazin 0.0624 μM) of the same compound?
**A.** Its value is 0.

**Q.** What about the “# of calli in 3 beads, %” value ([3]; flumioxazin 0.0624 μM) of the same compound?
**A.** Its value is 0%.

**Q.** And the “microcalli development after one month” value ([3]; any concentration tested, 1% DMSO)?
**A.** Its value is “no microcalli developed at any concentration tested”.

**Q.** What about the “concentration sufficient to kill all cells within a week” value ([3]; initial kill curve) of the same compound?
**A.** Its value is 125 µM.

**Q.** And the “solubility in liquid media” value ([2]; liquid culture selection media, 0 to 10 mM, DMSO 2.5%)?
**A.** Its value is “deficient solubility”.
